From article PMC9506485, “Synthesis and Structure–Activity Relationships for the Anti-Mycobacterial Activity of 3-Phenyl-N-(Pyridin-2-ylmethyl)Pyrazolo[1,5-a]Pyrimidin-7-Amines” (Pharmaceuticals, 2022)
Values after ≈ are worked out from the molar mass of the structure shown.

What was measured:
[1] = test system: Mycobacterium tuberculosis (strain H37Rv); test: LORA minimum inhibitory concentration assay (low-oxygen/non-replicating); conditions: M.tb H37Rv, 90% inhibition of growth
[2] = Microsomal stability, human liver microsomes; format: in vitro ADME; conditions: pH 7.4; for CLint scaled at 1 μM / half-life at 1 μM: human, microsomes; for microsomal CLint at 1 μM: human liver microsomes, read-out: HLM Clint(mic)
Procedure: (§1) Assays were performed by WuXi AppTec (Shanghai) Co., Ltd. The test compounds (Table 4) (at 1 μM) were incubated at 37 °C with liver microsomes from human or CD-1 mice in the presence of a NADPH regenerating system and phosphate buffer (100 mM, pH 7.4) at 0.5 mg/mL microsomal protein (the positive controls were testosterone, propafenone, and diclofenac). Samples were removed at time intervals of 0, 5, 10, 20, 30, and 60 min and immediately mixed with cold CH3CN (containing 0.1 μg/mL of tolbutamide as an internal standard) and then centrifuged prior to analysis by LCMS/MS.

[3] = Microsomal stability, mouse liver microsomes; format: in vitro ADME; conditions: for CLint scaled at 1 μM / half-life at 1 μM: CD-1, mouse, microsomes, pH 7.4; for microsomal CLint at 1 μM: CD-1, pH 7.4, mouse liver microsomes, read-out: MLM Clint(mic)
Procedure: as §1

[4] = test system: VERO green monkey kidney cells; test: VERO mammalian cell toxicity assay; format: cell-based; conditions: Chlorocebus sabaeus; inhibition of growth of VERO green monkey kidney epithelial cells
hERG = hERG (Homo sapiens, UniProt Q12809); test: hERG channel blockade, manual patch clamp; format: cell-based; conditions: cloned hERG potassium channels, room temperature
Procedure: Selected compounds were evaluated for hERG channel blockade (Table 4) by WuXi AppTec (Shanghai) Co., Ltd. This was carried out using cloned hERG potassium channels according to their standard manual patch clamp method. Two concentrations (0.3 and 1.0 µM) were tested (at room temperature), and at least three replicates were obtained for each. Amitryptyline was used as a standard.

[5] = test system: Mycobacterium tuberculosis (strain H37Rv); test: MABA minimum inhibitory concentration assay (aerobic/replicating); format: cell-based; conditions: M.tb H37Rv; for MIC90: Mycobacterium tuberculosis, aerobic/replicating, 90% inhibition of growth

hERG, sequence (Q12809 whole entry): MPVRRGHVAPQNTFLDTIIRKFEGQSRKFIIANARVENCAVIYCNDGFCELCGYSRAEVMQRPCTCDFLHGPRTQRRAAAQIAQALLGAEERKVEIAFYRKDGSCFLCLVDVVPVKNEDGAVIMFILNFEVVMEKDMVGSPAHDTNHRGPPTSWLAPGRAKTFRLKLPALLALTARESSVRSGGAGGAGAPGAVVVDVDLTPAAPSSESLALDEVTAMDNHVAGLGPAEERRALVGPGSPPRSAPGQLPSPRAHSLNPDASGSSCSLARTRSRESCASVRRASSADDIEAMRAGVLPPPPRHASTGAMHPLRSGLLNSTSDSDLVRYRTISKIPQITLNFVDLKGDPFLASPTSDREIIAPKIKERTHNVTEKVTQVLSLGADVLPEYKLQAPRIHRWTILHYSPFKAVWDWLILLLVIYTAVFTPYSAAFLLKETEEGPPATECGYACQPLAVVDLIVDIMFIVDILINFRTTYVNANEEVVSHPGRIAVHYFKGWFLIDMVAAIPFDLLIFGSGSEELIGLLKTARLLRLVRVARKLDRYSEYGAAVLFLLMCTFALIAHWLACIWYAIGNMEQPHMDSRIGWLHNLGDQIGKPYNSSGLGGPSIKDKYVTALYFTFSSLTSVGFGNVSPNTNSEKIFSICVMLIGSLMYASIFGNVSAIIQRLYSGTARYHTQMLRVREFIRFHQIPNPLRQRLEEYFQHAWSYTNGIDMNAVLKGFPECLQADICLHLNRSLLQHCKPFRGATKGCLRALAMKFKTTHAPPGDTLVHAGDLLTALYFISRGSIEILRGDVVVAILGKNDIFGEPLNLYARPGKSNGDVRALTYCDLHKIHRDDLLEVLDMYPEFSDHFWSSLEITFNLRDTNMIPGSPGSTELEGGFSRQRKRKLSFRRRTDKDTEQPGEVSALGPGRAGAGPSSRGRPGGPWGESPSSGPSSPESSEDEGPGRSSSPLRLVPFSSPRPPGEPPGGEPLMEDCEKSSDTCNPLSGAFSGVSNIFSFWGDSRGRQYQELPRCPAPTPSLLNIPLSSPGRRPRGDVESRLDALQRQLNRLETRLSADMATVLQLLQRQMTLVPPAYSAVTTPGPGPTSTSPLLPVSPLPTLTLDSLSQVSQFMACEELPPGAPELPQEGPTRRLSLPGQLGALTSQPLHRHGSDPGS

CC(C)c1ccc(-c2cc(NCc3ccccn3)n3ncc(-c4ccc(F)cc4)c3n2)cc1 [Compound 35, 3-(4-Fluorophenyl)-5-(4-isopropylphenyl)-N-(pyridin-2-ylmethyl)pyrazolo[1,5-a]pyrimidin-7-amine]
MIC90 LORA [1]: 1.0 µg/mL (≈ 2.29 µM) | CLint scaled at 1 μM [2]: < 8.6 mL/min/kg | half-life at 1 μM [2]: > 2.42 h | microsomal CLint at 1 μM [2]: < 9.6 µL/min/mg | CLint scaled at 1 μM [3]: < 38 mL/min/kg | half-life at 1 μM [3]: > 2.42 h | microsomal CLint at 1 μM [3]: < 9.6 µL/min/mg | IC50 [4]: > 32 µg/mL | inhibition at 0.3 µM (hERG; 0.3 µM, read-out: hERG % inhib. at 0.3 µM): 1% | inhibition at 1 µM (hERG; 1.0 µM, read-out: hERG % inhib. at 1.0 µM): 1% | MIC90 [5]: 1.8 µg/mL (≈ 4.11 µM)

Cc1ccnc(CNc2cc(-c3ccccc3)nc3c(-c4ccc(F)cc4)cnn23)c1 [Compound 62, 3-(4-Fluorophenyl)-N-((4-methylpyridin-2-yl)methyl)-5-phenylpyrazolo[1,5-a]pyrimidin-7-amine]
MIC90 LORA [1]: 0.5 µg/mL (≈ 1.22 µM) | CLint scaled at 1 μM [2]: < 8.6 mL/min/kg | half-life at 1 μM [2]: > 2.42 h | microsomal CLint at 1 μM [2]: < 9.6 µL/min/mg | CLint scaled at 1 μM [3]: < 38 mL/min/kg | half-life at 1 μM [3]: > 2.42 h | microsomal CLint at 1 μM [3]: < 9.6 µL/min/mg | IC50 [4]: > 32 µg/mL | MIC90 [5]: 1.8 µg/mL (≈ 4.4 µM) | melting point: 157 to 159 °C

CCc1cc(NCc2ccccn2)n2ncc(-c3ccc(F)cc3)c2n1 [Compound 23, 5-Ethyl-3-(4-fluorophenyl)-N-(pyridin-2-ylmethyl)pyrazolo[1,5-a]pyrimidin-7-amine]
MIC90 LORA [1]: 0.45 µg/mL (≈ 1.3 µM) | IC50 [4]: 14.1 µg/mL (≈ 40.6 µM) | MIC90 [5]: 1.4 µg/mL (≈ 4.03 µM) | melting point: 137 to 138 °C

N#Cc1cccnc1CNc1cc(-c2ccccc2)nc2c(-c3ccc(F)cc3)cnn12 [Compound 72, 2-(((3-(4-Fluorophenyl)-5-phenylpyrazolo[1,5-a]pyrimidin-7-yl)amino)methyl)nicotinonitrile]
MIC90 LORA [1]: >32 µg/mL | IC50 [4]: > 32 µg/mL | MIC90 [5]: > 32 µg/mL | melting point: 241 to 244 °C

CN(C)c1cccnc1CNc1cc(-c2ccccc2)nc2c(-c3ccc(F)cc3)cnn12 [Compound 69, N-((3-(Dimethylamino)pyridin-2-yl)methyl)-3-(4-fluorophenyl)-5-phenylpyrazolo[1,5-a]pyrimidin-7-amine]
MIC90 LORA [1]: 0.49 µg/mL (≈ 1.12 µM) | IC50 [4]: > 32 µg/mL | MIC90 [5]: 1.5 µg/mL (≈ 3.42 µM) | melting point: 167 to 170 °C

COc1cccc(CNc2cc(-c3ccccc3)nc3c(-c4ccc(F)cc4)cnn23)n1 [Compound 48, 3-(4-Fluorophenyl)-N-((6-methoxypyridin-2-yl)methyl)-5-phenylpyrazolo[1,5-a]pyrimidin-7-amine]
MIC90 LORA [1]: >32 µg/mL | IC50 [4]: > 32 µg/mL | MIC90 [5]: > 32 µg/mL | melting point: 163 to 165 °C

FC(F)(F)c1cccc(-c2cnn3c(NCc4ccccn4)cc(-c4ccccc4)nc23)c1 [Compound 17, 5-Phenyl-N-(pyridin-2-ylmethyl)-3-(3-(trifluoromethyl)phenyl)pyrazolo[1,5-a]pyrimidin-7-amine]
MIC90 LORA [1]: >32 µg/mL | IC50 [4]: > 32 µg/mL | MIC90 [5]: > 32 µg/mL | melting point: 156 to 158 °C

CN(C)CCN(C)c1ccnc(CNc2cc(-c3ccccc3)nc3c(-c4ccc(F)cc4)cnn23)c1 [Compound 67, N1-(2-(((3-(4-Fluorophenyl)-5-phenylpyrazolo[1,5-a]pyrimidin-7-yl)amino)methyl)pyridin-4-yl)-N1,N2,N2-trimethylethane-1,2-diamine]
MIC90 LORA [1]: 1.5 µg/mL (≈ 3.03 µM) | IC50 [4]: 9.9 µg/mL (≈ 20 µM) | MIC90 [5]: 1.7 µg/mL (≈ 3.43 µM) | melting point: 158 to 160 °C

Fc1ccc(-c2cnn3c(NCc4cccc(N5CCCCC5)n4)cc(-c4ccccc4)nc23)cc1 [Compound 50, 3-(4-Fluorophenyl)-5-phenyl-N-((6-(piperidin-1-yl)pyridin-2-yl)methyl)pyrazolo[1,5-a]pyrimidin-7-amine]
MIC90 LORA [1]: 1.75 µg/mL (≈ 3.66 µM) | IC50 [4]: > 32 µg/mL | MIC90 [5]: 0.25 µg/mL (≈ 0.522 µM) | melting point: 185 to 187 °C

Fc1ccc(-c2cnn3c(NCc4cc(Cl)ccn4)cc(-c4ccccc4)nc23)cc1 [Compound 60, N-((4-Chloropyridin-2-yl)methyl)-3-(4-fluorophenyl)-5-phenylpyrazolo[1,5-a]pyrimidin-7-amine]
MIC90 LORA [1]: >32 µg/mL | IC50 [4]: > 32 µg/mL | anti-mycobacterial activity in words ([5]; MABA/LORA): inactive | MIC90 [5]: > 32 µg/mL | melting point: 220 to 222 °C

Fc1ccccc1-c1cnn2c(NCc3ccccn3)cc(-c3ccccc3)nc12 [Compound 11, 3-(2-Fluorophenyl)-5-phenyl-N-(pyridin-2-ylmethyl)pyrazolo[1,5-a]pyrimidin-7-amine]
MIC90 LORA [1]: >32 µg/mL | IC50 [4]: > 32 µg/mL | MIC90 [5]: > 32 µg/mL | melting point: 176 to 178 °C

Cc1cccc(-c2cnn3c(NCc4ccccn4)cc(-c4ccccc4)nc23)c1 [Compound 15, 5-Phenyl-N-(pyridin-2-ylmethyl)-3-(m-tolyl)pyrazolo[1,5-a]pyrimidin-7-amine]
MIC90 LORA [1]: 30 µg/mL (≈ 76.6 µM) | IC50 [4]: > 32 µg/mL | MIC90 [5]: > 32 µg/mL | melting point: 172 to 174 °C

Fc1ccc(-c2cnn3c(NCc4ncccc4F)cc(-c4ccccc4)nc23)cc1 [Compound 70, 3-(4-Fluorophenyl)-N-((3-fluoropyridin-2-yl)methyl)-5-phenylpyrazolo[1,5-a]pyrimidin-7-amine]
MIC90 LORA [1]: >32 µg/mL | IC50 [4]: > 32 µg/mL | MIC90 [5]: > 32 µg/mL | melting point: 165 to 168 °C

Fc1ccc(-c2cnn3c(NCc4cccc(F)n4)cc(-c4ccccc4)nc23)cc1 [Compound 45, 3-(4-Fluorophenyl)-N-((6-fluoropyridin-2-yl)methyl)-5-phenylpyrazolo[1,5-a]pyrimidin-7-amine]
MIC90 LORA [1]: >32 µg/mL | IC50 [4]: > 32 µg/mL | MIC90 [5]: > 32 µg/mL | melting point: 196 to 198 °C

Fc1ccc(-c2cnn3c(NCc4cc(N5CCCC5)ccn4)cc(-c4ccccc4)nc23)cc1 [Compound 64, 3-(4-Fluorophenyl)-5-phenyl-N-((4-(pyrrolidin-1-yl)pyridin-2-yl)methyl)pyrazolo[1,5-a]pyrimidin-7-amine]
MIC90 LORA [1]: 0.94 µg/mL (≈ 2.02 µM) | IC50 [4]: 16 µg/mL (≈ 34.4 µM) | MIC90 [5]: 0.47 µg/mL (≈ 1.01 µM) | melting point: 221 to 223 °C

Fc1cccc(-c2cnn3c(NCc4ccccn4)cc(-c4ccccc4)nc23)c1 [Compound 14, 3-(3-Fluorophenyl)-5-phenyl-N-(pyridin-2-ylmethyl)pyrazolo[1,5-a]pyrimidin-7-amine]
MIC90 LORA [1]: >32 µg/mL | IC50 [4]: > 32 µg/mL | MIC90 [5]: > 32 µg/mL | melting point: 170 to 172 °C

COc1ccc(CNc2cc(-c3ccccc3)nc3c(-c4ccc(F)cc4)cnn23)nc1 [Compound 54, 3-(4-Fluorophenyl)-N-((5-methoxypyridin-2-yl)methyl)-5-phenylpyrazolo[1,5-a]pyrimidin-7-amine]
MIC90 LORA [1]: 1.3 µg/mL (≈ 3.06 µM) | CLint scaled at 1 μM [2]: < 8.6 mL/min/kg | half-life at 1 μM [2]: > 2.42 h | microsomal CLint at 1 μM [2]: < 9.6 µL/min/mg | CLint scaled at 1 μM [3]: < 38 mL/min/kg | half-life at 1 μM [3]: > 2.42 h | microsomal CLint at 1 μM [3]: < 9.6 µL/min/mg | IC50 [4]: > 32 µg/mL | MIC90 [5]: 3.6 µg/mL (≈ 8.46 µM) | melting point: 212 to 214 °C

COc1cccc(-c2cnn3c(NCc4ccccn4)cc(-c4ccccc4)nc23)c1 [Compound 16, 3-(3-Methoxyphenyl)-5-phenyl-N-(pyridin-2-ylmethyl)pyrazolo[1,5-a]pyrimidin-7-amine]
MIC90 LORA [1]: 10 µg/mL (≈ 24.5 µM) | IC50 [4]: > 32 µg/mL | MIC90 [5]: 7.6 µg/mL (≈ 18.7 µM) | melting point: 122 to 124 °C

Cc1cccc(CNc2cc(-c3ccccc3)nc3c(-c4ccc(F)cc4)cnn23)n1 [Compound 47, 3-(4-Fluorophenyl)-N-((6-methylpyridin-2-yl)methyl)-5-phenylpyrazolo[1,5-a]pyrimidin-7-amine]
MIC90 LORA [1]: >32 µg/mL | IC50 [4]: > 32 µg/mL | MIC90 [5]: > 32 µg/mL | melting point: 177 to 180 °C

Fc1ccc(-c2cnn3c(NCc4cc(N5CCOCC5)ccn4)cc(-c4ccccc4)nc23)cc1 [Compound 66, 3-(4-Fluorophenyl)-N-((4-morpholinopyridin-2-yl)methyl)-5-phenylpyrazolo[1,5-a]pyrimidin-7-amine]
MIC90 LORA [1]: 0.98 µg/mL (≈ 2.04 µM) | IC50 [4]: > 32 µg/mL | MIC90 [5]: 0.06 µg/mL (≈ 0.125 µM) | melting point: 208 °C

Fc1ccc(-c2cnn3c(NCc4cccc(Br)n4)cc(-c4ccccc4)nc23)cc1 [Compound 46, N-((6-Bromopyridin-2-yl)methyl)-3-(4-fluorophenyl)-5-phenylpyrazolo[1,5-a]pyrimidin-7-amine]
MIC90 LORA [1]: >32 µg/mL | IC50 [4]: > 32 µg/mL | MIC90 [5]: > 32 µg/mL | melting point: 160 to 161 °C

Fc1ccc(-c2cnn3c(NCc4ncccc4Br)cc(-c4ccccc4)nc23)cc1 [Compound 71, N-((3-Bromopyridin-2-yl)methyl)-3-(4-fluorophenyl)-5-phenylpyrazolo[1,5-a]pyrimidin-7-amine]
MIC90 LORA [1]: >32 µg/mL | IC50 [4]: > 32 µg/mL | MIC90 [5]: > 32 µg/mL | melting point: 189 to 191 °C
